Here are results for nine compounds from patent US20240140957A1, “BRIDGED COMPOUNDS AS KRAS G12D INHIBITOR AND DEGRADER AND THE USE THEREOF” (BeiGene Switzerland GmbH, priority 2021, published 2024).

Molecules are shown by their SMILES. Bounds are passed on as bounds.

The target of the experiment is GDP-loaded KRAS G12D (Homo sapiens, UniProt P01116, G12D). The experiment can be described thus: KRAS G12D Probe Displacement Assay. The experiment is classed as binding. The settings on record: KRAS G12D 0.5 nM, biotinylated probe 2 4 nM; Table 6 letters; read-out: KRAS G12D Probe Displacement Assay IC50 (class).
Sequence of GDP-loaded KRAS G12D (P01116 1-188 isoform P01116-2 G12D): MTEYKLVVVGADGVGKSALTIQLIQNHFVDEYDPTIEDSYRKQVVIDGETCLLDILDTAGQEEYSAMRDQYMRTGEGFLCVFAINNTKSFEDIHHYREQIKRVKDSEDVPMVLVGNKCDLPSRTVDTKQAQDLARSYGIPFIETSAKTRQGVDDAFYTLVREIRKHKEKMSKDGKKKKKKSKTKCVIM
A word on the IC50: it is the concentration needed to halve the response being measured. For the compound `COCC1CC2(COc3nc(N4CC5CCC(C4)N5)c4cc(C(F)(F)F)c(-c5ccc(F)c6sc(N)nc56)c(F)c4n3)CC(F)CN12` (stereo not drawn) [Example E134, 4-(4-(3,8-diazabicyclo[3.2.1]octan-3-yl)-8-fluoro-2-((3-fluoro-7-(methoxymethyl)-1-azabicyclo[3.2.0]heptan-5-yl)methoxy)-6-(trifluoromethyl)quinazolin-7-yl)-7-fluorobenzo[d]thiazol-2-amine], the IC50 is below 50 nM.

As to `Cn1nc(N)c(-c2cc3nc(OC[C@@]45CCCN4C[C@H](F)C5)nc(N4CC5CCC(C4)N5)c3cc2Cl)c1C1CC1` [Example E135, 4-(4-(3,8-diazabicyclo[3.2.1]octan-3-yl)-6-chloro-2-(((2R,7aS)-2-fluorotetrahydro-1H-pyrrolizin-7a(5H)-yl)methoxy)quinazolin-7-yl)-5-cyclopropyl-1-methyl-1H-pyrazol-3-amine], the IC50 is above 1000 nM.

`F[C@H]1CN2CCC[C@@]2(COc2nc(N3CC4CCC(C3)N4)c3cc(Cl)c(-n4ncc5cccc(Cl)c54)cc3n2)C1` [Example E136, 4-(3,8-diazabicyclo[3.2.1]octan-3-yl)-6-chloro-7-(7-chloro-1H-indazol-1-yl)-2-(((2R,7aS)-2-fluorotetrahydro-1H-pyrrolizin-7a(5H)-yl)methoxy)quinazoline]: the concentration for half-maximal inhibition (IC50) was above 1000 nM.

With `COC[C@@]1(COc2nc(N3C4CNCC3COC4)c3cc(F)c(-c4nc(N)cc(C)c4C(F)(F)F)c(F)c3n2)C[C@@H](F)CN1C` [Example E137, 6-(4-(3-oxa-7,9-diazabicyclo[3.3.1]nonan-9-yl)-6,8-difluoro-2-(((2R,4R)-4-fluoro-2-(methoxymethyl)-1-methylpyrrolidin-2-yl)methoxy)quinazolin-7-yl)-4-methyl-5-(trifluoromethyl)pyridin-2-amine], the IC50 fell in the range of 100 to 1000 nM.

On to `COC1CN2CC(F)CC2(COc2nc(N3C4CNCC3COC4)c3cc(F)c(-c4nc(N)cc(C)c4C(F)(F)F)c(F)c3n2)C1` (stereo not drawn) [Example E138, 6-(4-(3-oxa-7,9-diazabicyclo[3.3.1]nonan-9-yl)-6,8-difluoro-2-((2-fluoro-6-methoxytetrahydro-1H-pyrrolizin-7a(5H)-yl)methoxy)quinazolin-7-yl)-4-methyl-5-(trifluoromethyl)pyridin-2-amine], for which the IC50 was 100 to 1000 nM.

As to `Nc1nc2c(-c3c(C(F)(F)F)cc4c(N5C6CNCC5COC6)nc(OCC56CC(F)CN5CC(F)C6)nc4c3F)ccc(F)c2s1` (stereo not drawn) [Example E139, 4-(4-(3-oxa-7,9-diazabicyclo[3.3.1]nonan-9-yl)-2-((2,6-difluorotetrahydro-1H-pyrrolizin-7a(5H)-yl)methoxy)-8-fluoro-6-(trifluoromethyl)quinazolin-7-yl)-7-fluorobenzo[d]thiazol-2-amine], the IC50 was below 50 nM.

Regarding `Nc1nc2c(-c3c(Cl)cc4c(N5CC6CCC(C5)N6)nc(OC[C@@]56CCCN5C[C@H](F)C6)nc4c3F)cc(Cl)cc2s1` [Example E140, 4-(4-(3,8-diazabicyclo[3.2.1]octan-3-yl)-6-chloro-8-fluoro-2-(((2R,7aS)-2-fluorotetrahydro-1H-pyrrolizin-7a(5H)-yl)methoxy)quinazolin-7-yl)-6-chlorobenzo [d]thiazol-2-amine], the half-inhibitory concentration (IC50) was below 50 nM.

Take `Nc1nc2c(-c3c(C(F)(F)F)cc4c(N5CC6CCC(C5)N6)nc(OCC(O)CO)nc4c3F)ccc(F)c2s1` (stereo not drawn) [Example E141, 3-((7-(2-amino-7-fluorobenzo[d]thiazol-4-yl)-4-(3,8-diazabicyclo [3.2.1]octan-3-yl)-8-fluoro-6-(trifluoromethyl)quinazolin-2-yl)oxy)propane-1,2-diol]: the concentration for half-maximal inhibition (IC50) was below 50 nM.

In the case of `CC(CO)COc1nc(N2CC3CCC(C2)N3)c2cc(C(F)(F)F)c(-c3ccc(F)c4sc(N)nc34)c(F)c2n1` (stereo not drawn) [Example E142, 3-((7-(2-amino-7-fluorobenzo[d]thiazol-4-yl)-4-(3,8-diazabicyclo [3.2.1]octan-3-yl)-8-fluoro-6-(trifluoromethyl)quinazolin-2-yl)oxy)-2-methylpropan-1-ol], the IC50 is below 50 nM.
